“Also recorded” adds a separate entry of the source. Each block holds one compound with its values, some of them ahead of it.
Tests used:
Assay type in all cases: physicochemical
[1] = Spontaneous isomerization in D2O or D2O:DMSO-d6 without nucleophile by 1H NMR; conditions: for isomerization or degradation on storage in D2O, result in words: stored in D2O, 1H NMR
Procedure: Bulk samples of the compounds described above in Examples 1-3 were stored at −20° C. for six months. […] The spontaneous isomerization took almost 5 days at 37° C. and more than 12 days at room temperature. […] With 22, a similar degree of isomerization was observed only after 63 hours at room temperature in D2O.
(§1) Measurements were taken in the following intervals: mercaptoethanol: 0 h, 2 h, 11 h, 17 h and 25 h; cysteine: 0 h, 6 h and 14 h; s-TCO without nucleophile at room temperature: 1 h, 7 h and 14 h.
(§2) In each case the ratio of the integrals of the cis-double bond to the sum of the integrals of the cis- and trans-double bonds was calculate.

[2] = Chemical stability in the presence of mercaptoethanol by 1H NMR; design: Icis / Itrans: unit not given here; conditions: for Icis / Itrans / Itrans/(Icis + Itrans) / chemical stability (change by NMR) after 16 hours: mercaptoethanol; for Icis / Itrans / Itrans/(Icis + Itrans) / chemical stability / isomerization, result in words: 37° C.; for chemical stability / isomerization, result in words: 48 mM mercaptoethanol, 20 mM cyclooctene (s-TCO 10 mM), D2O:DMSO-d6 10:1 v/v, 0-25 h; for chemical stability (change by NMR) after 16 hours: D2O:DMSO-d6 10:1 v/v at 37° C.
Procedure: (§3) The chemical stability of the compounds of Examples 1-3 was also investigated in the presence of thiols (cysteine and mercaptoethanol) by NMR in D2O:DMSO-d6 10:1 v/v at 37° C.
(§4) The solutions were prepared by the dilution of a stock solution prepared in DMSO-d6. An end concentration of 20 mM of the cyclooctenes was used except for the s-TCO, which was used in 10 mM end concentration due to poorer solubility. A 20 mM solution could not be prepared by dilution with D2O from DMSO-d6 stock solution without the precipitation of s-TCO. Nucleophiles mercaptoethanol and cysteine were used in 48 mM end concentration. Cysteine precipitated very soon from the solution. In all cases reactions were followed by ^1H NMR.
Measurements were taken in the following intervals: mercaptoethanol: 0 h, 2 h, 11 h, 17 h and 25 h; cysteine: 0 h, 6 h and 14 h; s-TCO without nucleophile at room temperature: 1 h, 7 h and 14 h. […]

[3] = Chemical stability in the presence of cysteine by 1H NMR; conditions: 37° C.; for chemical stability / isomerization, result in words: 48 mM cysteine, 20 mM cyclooctene (s-TCO 10 mM), D2O:DMSO-d6 10:1 v/v, 0-14 h; for trans-isomer still present after 6 hours / Icis / Itrans: cysteine
Procedure: as §3, §4, §1, §2

[4] = as above; conditions: for Itrans/(Icis + Itrans): 37° C.; for chemical stability (change by NMR) after 16 hours: D2O:DMSO-d6 10:1 v/v at 37° C.
[5] = Tetrazine kinetics with cyclooctenes (stopped-flow spectrophotometry); conditions: for k2 second rate constant / second order rate constant k2: reaction with benzylamino tetrazine in PBS at 37° C.
Procedure: Kinetic measurements were performed with benzylamino tetrazine and excessive amounts of cyclooctenes, using an Applied Photophysics Stopped-Flow spectrophotometer. Stock solutions of reactants in DMSO were diluted in PBS pH 7.4 to a final concentration of 1 vol % DMSO. Solutions of these reactants were loaded into the individual chambers of the instrument and equilibrated to 37° C. for 10 min. The concentration of benzylamino tetrazine after the samples were mixed by the spectrometer in a 1:1 v/v ratio was 50, 75 or 150 μM depending on the cyclooctene used. The decrease of the benzylamino tetrazine absorbance measured at 515 nm was monitored at regular intervals between 0.075 s and 10 s depending on the cyclooctene used. For trials shorter than […] (TCO-OH, OX-TCO and 3PEGMe-TCO) 1000 data points were collected and for trials longer than 1 s (EG-TCO and DO-TCO) 10000 data points were collected.
The kobs, (s^−1) values were calculated using the Prism 6 software package and the results of 6 runs were averaged for each cyclooctene concentration. […] The average kobs, values were then plotted against the concentration of cyclooctenes to yield the second order rate constant k2=(dm^3 mol^−1 s^−1) from the slope of the line with the error from the standard deviation in the slope calculated in Prism 6.

[6] = Spontaneous isomerization in D2O or D2O:DMSO-d6 without nucleophile by 1H NMR; conditions: D2O:DMSO-d6 (10:1 v/v), room temperature, no nucleophile
[7] = Solubility in DMSO/water (D2O) mixtures; conditions: dilution with D2O from DMSO-d6 stock solution (D2O:DMSO-d6 10:1)
Procedure: as §4
The conjugates were tested in imaging experiments (FIG. 1). An advantage of the new trans cyclooctene derivatives lies in their improved solubility in DMSO/water mixtures. Bioorthogonal imaging experiments of PARP protein in HT1080 cells (expressing PARP1 fused to mCherry) were successful with all three new compounds, (FIG. 1). The imaging experiments were performed by treating HT1080 cells (expressing PARP1 fused to mCherry) with 5 μM compound 45 (a-d), 46 (e-h) and 47 (i-l) for 30 minutes. After washing with growth media three times for 5 minutes each, cells were incubated for 30 minutes with 1 μM of CFDA-Tz for bio-orthogonal reaction inside the live cells. Following fixation, 40× images were collected by deconvolution microscopy a, e, i) bright field images; b, f, j) Olaparib-TCO/Tz-CFDA staining; c, g, k) PARP1-mCherry, d, h, l) merged images (see FIG. 1). […]

[8] = D2O:DMSO-d6 (10:1 v/v), room temperature, no nucleophile, t 1 h
[9] = D2O:DMSO-d6 (10:1 v/v), room temperature, no nucleophile, t 7 h
[10] = D2O:DMSO-d6 (10:1 v/v), room temperature, no nucleophile, t 14 h

isomerization or degradation on storage in D2O, result in words [1]: no isomerization or degradation | Icis ([2]; t 0 h): 0.17 | Itrans ([2]; t 0 h): 2 | Itrans/(Icis + Itrans) ([2]; t 0 h): 0.922 | Icis ([2]; t 2 h): 0.48 | Itrans ([2]; t 2 h): 2 | Itrans/(Icis + Itrans) ([2]; t 2 h): 0.807 | Icis ([2]; t 11 h): 0.66 | Itrans ([2]; t 11 h): 2 | Itrans/(Icis + Itrans) ([2]; t 11 h): 0.752 | Icis ([2]; t 17 h): 0.69 | Itrans ([2]; t 17 h): 2 | Itrans/(Icis + Itrans) ([2]; t 17 h): 0.744 | Icis ([2]; t 25 h): 0.74 | Itrans ([2]; t 25 h): 2 | Itrans/(Icis + Itrans) ([2]; t 25 h): 0.730
Compound: COCCOCCOCCOC1CC/C=C/CCC1O (centres unmarked) [3PEGMe-TCO, (E)-8-(2-(2-(2-methoxyethoxy)ethoxy)ethoxy)cyclooct-4-enol]
chemical stability / isomerization, result in words [3]: did not show any degradation; also recorded: relatively stable

chemical stability (change by NMR) after 16 hours [4]: did not show any change | isomerization or degradation on storage in D2O, result in words [1]: no isomerization or degradation | chemical stability (change by NMR) after 16 hours [2]: did not show any change
Compound: O=C1OC2CC/C=C/CCC2N1CCOCCO (centres unmarked) [OX-TCO, (E)-3-(2-(2-hydroxyethoxy)ethyl)-3,3a,4,5,9,9a-hexahydrocycloocta[d]oxazol-2(8H)-one]
weighted average second order rate constant k2 ([5]; 4:1 isomer mixture, benzylamino tetrazine in PBS at 37° C.): 29242±636 dm^3 mol^−1 s^−1 | k2 second rate constant [5]: 29242 ± 636 dm^3 · mol^−1 · s^−1 | chemical stability / isomerization, result in words [2]: did not show any change; also recorded: relatively stable | chemical stability / isomerization, result in words [3]: did not show any change; also recorded: relatively stable

More lines, now with the values behind:

Compound: OCCOC1/C=C/COCOC1 (centres unmarked) [DO-TCO, (E)-2-((5,8-dihydro-4H-1,3-dioxocin-5-yl)oxy)ethanol]
Itrans/(Icis + Itrans) ([4]; t 0 h): 1 | Itrans/(Icis + Itrans) ([4]; t 6 h): 0 | Itrans/(Icis + Itrans) ([4]; t 14 h): 0 | k2 second rate constant [5]: 332 ± 3 dm^3 · mol^−1 · s^−1 | second order rate constant k2 [5]: 332±3 dm^3 mol^−1 s^−1 | time the spontaneous isomerization to the cis isomer took ([1]; D2O, 37° C.): ~5 days | time after which a similar degree of isomerization (at least 5%) was observed ([1]; D2O, room temperature): 63 h | time the spontaneous isomerization to the cis isomer took ([1]; D2O, room temperature): more than 12 days | isomerization or degradation on storage in D2O, result in words [1]: slow isomerization to the cis isomer | Icis ([2]; t 0 h): 0 | Itrans ([2]; t 0 h): 2 | Itrans/(Icis + Itrans) ([2]; t 0 h): 1 | Icis ([2]; t 2 h): 0.18 | Itrans ([2]; t 2 h): 2 | Itrans/(Icis + Itrans) ([2]; t 2 h): 0.917 | Icis ([2]; t 11 h): 0.38 | Itrans ([2]; t 11 h): 2 | Itrans/(Icis + Itrans) ([2]; t 11 h): 0.840 | Icis ([2]; t 17 h): 0.42 | Itrans ([2]; t 17 h): 2 | Itrans/(Icis + Itrans) ([2]; t 17 h): 0.826 | Icis ([2]; t 25 h): 0.79 | Itrans ([2]; t 25 h): 2 | Itrans/(Icis + Itrans) ([2]; t 25 h): 0.717 | chemical stability / isomerization, result in words [3]: isomerization of the trans isomer to the cis isomer; also recorded: isomerization of the trans-isomer to the cis-isomer; also recorded: undergo isomerization/decomposition; also recorded: much faster than that of s-TCO | trans-isomer still present after 6 hours [3]: no trans-compound was present | Icis ([3]; t 0 h): 0 | Itrans ([3]; t 0 h): 2 | Icis ([3]; t 6 h): 2 | Itrans ([3]; t 6 h): 0 | Icis ([3]; t 14 h): 2 | Itrans ([3]; t 14 h): 0

Compound: OCCOC1/C=C/CCCCC1 (centres unmarked) [EG-TCO, (E)-2-(cyclooct-2-en-1-yloxy)ethanol]
chemical stability (change by NMR) after 16 hours [4]: did not show any change | k2 second rate constant [5]: 600 ± 6 dm^3 · mol^−1 · s^−1 | second order rate constant k2 [5]: 600±6 dm^3 mol^−1 s^−1 | chemical stability / isomerization, result in words [2]: did not show any change; also recorded: relatively stable | chemical stability (change by NMR) after 16 hours [2]: did not show any change | chemical stability / isomerization, result in words [3]: did not show any change; also recorded: relatively stable

Compound: OC1CC/C=C/CCC1 (stereo not drawn) [TCO-OH, trans-cyclooctenol, reference compound]
chemical stability (change by NMR) after 16 hours [4]: did not show any change | k2 second rate constant [5]: 33585 ± 326 dm^3 · mol^−1 · s^−1 | isomerization or degradation on storage in D2O, result in words [1]: no isomerization or degradation | chemical stability / isomerization, result in words [2]: did not show any change; also recorded: relatively stable | chemical stability / isomerization, result in words ([2]; listed as TCO): isomerized very fast | chemical stability (change by NMR) after 16 hours [2]: did not show any change | chemical stability / isomerization, result in words [3]: did not show any change; also recorded: relatively stable

Compound: OCC1C2CCC=CCCC12 (centres unmarked) [s-TCO, reference compound]
Itrans/(Icis + Itrans) ([4]; t 0 h): 0.913 | Itrans/(Icis + Itrans) ([4]; t 6 h): 0.652 | Itrans/(Icis + Itrans) ([4]; t 14 h): 0.192 | Icis ([6]; t 0 h): 0 | Itrans ([6]; t 0 h): 2 | Itrans/(Icis + Itrans) ([6]; t 1 h): 0.985 | Itrans/(Icis + Itrans) ([6]; t 7 h): 0.971 | Itrans/(Icis + Itrans) ([6]; t 14 h): 0.952 | isomerization after 14 hours ([1]; D2O:DMSO-d6 10:1, room temperature, 14 hours): at least 5% | Itrans/(Icis + Itrans) ([1]; D2O:DMSO-d6 (10:1 v/v), room temperature, no nucleophile, t 0 h): 1 | Icis [1, 8]: 0.03 | Itrans [1, 8]: 2 | Icis [1, 9]: 0.06 | Itrans [1, 9]: 2 | Icis [1, 10]: 0.1 | Itrans [1, 10]: 2 | chemical stability / isomerization, result in words [2]: isomerization of the trans isomer to the cis isomer; also recorded: occurred together with unidentified side reactions; also recorded: undergo isomerization/decomposition; also recorded: most of the s-TCO disappeared within the first two hours | Icis ([2]; t 0 h): 1.19 | Itrans ([2]; t 0 h): 2 | Itrans/(Icis + Itrans) ([2]; t 0 h): 0.627 | Icis ([2]; t 2 h): 87 | Itrans ([2]; t 2 h): 2 | Itrans/(Icis + Itrans) ([2]; t 2 h): 0.023 | Icis ([2]; t 11 h): 2 | Itrans ([2]; t 11 h): 0 | Itrans/(Icis + Itrans) ([2]; t 11 h): 0 | Icis ([2]; t 17 h): 2 | Itrans ([2]; t 17 h): 0 | Itrans/(Icis + Itrans) ([2]; t 17 h): 0 | Icis ([2]; t 25 h): 2 | Itrans ([2]; t 25 h): 0 | Itrans/(Icis + Itrans) ([2]; t 25 h): 0 | concentration preparable without precipitation [7]: < 20000 µM | chemical stability / isomerization, result in words [3]: isomerization of the trans isomer to the cis isomer; also recorded: isomerization of the trans-isomer to the cis-isomer; also recorded: undergo isomerization/decomposition | trans-isomer still present after 6 hours [3]: 65% | Icis ([3]; t 0 h): 0.19 | Itrans ([3]; t 0 h): 2 | Icis ([3]; t 6 h): 1.07 | Itrans ([3]; t 6 h): 2 | Icis ([3]; t 14 h): 8.42 | Itrans ([3]; t 14 h): 2
